TGI and GI50 data for 19 molecules are collected here from PubChem BioAssay (NCI).

Test systems include SNB-78 CNS; DLD-1 colon; HOP-18 NSCLC; LXFL 529 NSCLC; KM20L2 colon; MDA-MB-435; DU-145 prostate; PC-3 prostate; MCF7 breast; BT-549 breast.
What all share (assay): NCI anticancer screen, dose series, 48 h

Structures are written as SMILES.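 Tested at 5 concentrations; 48 h exposure; 96-well plates; endpoints linearly interpolated, else capped at highest concentration. GI50: concentration for 50% inhibition of growth. TGI marks complete inhibition of growth.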

As for `Cc1ccc(N2C(=O)/C(=C/c3ccc(N(CCC#N)CCC#N)cc3C)N=C2c2cc([N+](=O)[O-])ccc2Cl)cc1`, the TGI in the assay with SNB-78 CNS, in the assay on DLD-1 colon, in the assay with HOP-18 NSCLC and in the assay with LXFL 529 NSCLC was above 100 µM throughout.
For the molecule `Cc1ccc(/C=C2\CCCC\C2=N\O)cc1`, the TGI in the assay with SNB-78 CNS, in the assay on DLD-1 colon, in the assay with HOP-18 NSCLC, with KM20L2 colon and in the assay with LXFL 529 NSCLC was above 100 µM throughout.
For the molecule `C[CH2][Sn]([CH2]C)([O]C(=O)c1cccc(F)c1)[O][Sn]([CH2]C)([CH2]C)[O]C(=O)c1cccc(F)c1`, the GI50 was 16.3 µM with SNB-78 CNS; 12.5 µM with DLD-1 colon; 18.5 µM in the assay with HOP-18 NSCLC; 38.4 µM in the assay on KM20L2 colon; 10.4 µM in the assay with LXFL 529 NSCLC. Also, the TGI was 35.1 µM in the assay with SNB-78 CNS; 26.1 µM in the assay with DLD-1 colon; 32.5 µM in the assay on HOP-18 NSCLC; above 100 µM with KM20L2 colon; 22.4 µM in the assay on LXFL 529 NSCLC.
Regarding `C=CCN=C1NC(=O)C(CC(=O)Nc2ccc(C)cc2)S1` (configuration not stated), the TGI in the assay with DLD-1 colon, with HOP-18 NSCLC, in the assay with KM20L2 colon and with LXFL 529 NSCLC was above 100 µM throughout.
With `C=C(C)[C@H](O)C(O)CC(C)[C@@H]1CCC23CC12CCC1[C@@]2(C)CCC(OC(C)=O)C(C)(C)C2CC(OC2OC(COC(C)=O)C(O)C(O)C2O)[C@]13C` (some centres not stated), the TGI in the assay on SNB-78 CNS came out at 14.2 µM; with DLD-1 colon it was 11.2 µM; in the assay with HOP-18 NSCLC, 15.2 µM; in the assay on KM20L2 colon, 9.84 µM; in the assay with LXFL 529 NSCLC it was 10.9 µM.
For `COc1cc(C(=O)CC2(O)C(=O)Nc3c(Cl)cc(Cl)cc32)ccc1O` (configuration not stated) the same measures were above 100 µM, above 100 µM, above 100 µM, above 100 µM and above 100 µM.
The corresponding values for `CC1=Nn2c(nnc2-c2ccc(N)cc2)NC(C)(C)C1` are above 100 µM, above 100 µM, above 100 µM, above 100 µM and above 100 µM.
For the molecule `CCOC(=O)NC(=O)c1cn(CCN2CCN(C(=O)NCCCCCCNC(=O)N3CCN(CCn4cc(C(=O)NC(=O)OCC)c(=O)n(CCN(CC)CC)c4=O)CC3)CC2)c(=O)n(CCC(CC)CC)c1=O`, the TGI in the assay on SNB-78 CNS, with DLD-1 colon, in the assay with HOP-18 NSCLC, in the assay on KM20L2 colon and in the assay with LXFL 529 NSCLC was above 100 µM in each case.
Take `CC1(C)C2C/C(=C\c3ccccc3)C(=O)C1C2` (configuration not stated): the TGI in the assay on SNB-78 CNS, in the assay with DLD-1 colon and with LXFL 529 NSCLC was above 100 µM throughout.
In the case of `COC(=O)C(CC(=O)Nc1ccc(Cl)c(Cl)c1)C(=O)C(=O)NC1C2CC3CC(C2)CC1C3` (configuration not stated), the TGI in the assay with SNB-78 CNS, in the assay on HOP-18 NSCLC, with KM20L2 colon and in the assay on LXFL 529 NSCLC was above 100 µM in each case.
Take `C[CH2][Sn]([Cl])([Cl])[CH2]C`: the GI50 was 20.3 µM with SNB-78 CNS; 36 µM in the assay with DLD-1 colon; 27 µM in the assay on HOP-18 NSCLC; 71.4 µM with KM20L2 colon; 12.5 µM in the assay with LXFL 529 NSCLC. The TGI was 46.4 µM with SNB-78 CNS; above 100 µM in the assay with DLD-1 colon; 55.4 µM with HOP-18 NSCLC; above 100 µM with KM20L2 colon; 25.2 µM with LXFL 529 NSCLC.
In the case of `CS/C(c1ccccc1)=[N+](/C)[O-]`, the TGI in the assay on SNB-78 CNS, in the assay on DLD-1 colon, in the assay on HOP-18 NSCLC, in the assay with KM20L2 colon and in the assay with LXFL 529 NSCLC was above 100 µM throughout.
In the case of `NC(CCSC(F)F)C(=O)O` (configuration not stated), the TGI with SNB-78 CNS, in the assay on DLD-1 colon, with KM20L2 colon and with LXFL 529 NSCLC was above 100 µM each time.
As to `COCCNC(=O)c1ccc(-c2nc3ccc4[nH]ncc4c3c3c2CCCC3)cc1`, the GI50 in the assay with MDA-MB-435 was 2.83 µM; in the assay with DU-145 prostate, 2.12 µM; in the assay on PC-3 prostate it was 2.96 µM; in the assay on MCF7 breast, 2.52 µM; in the assay with BT-549 breast, 1.22 µM. Moreover, the TGI in the assay on MDA-MB-435 is above 100 µM; in the assay on DU-145 prostate, above 100 µM; in the assay on PC-3 prostate, above 100 µM; with MCF7 breast it was 20.4 µM; in the assay with BT-549 breast, 9.34 µM.
With `COc1cc([C@@H]2OC(=O)C3C2C(=O)O[C@H]3c2cc(OC)c(OC)c(OC)c2)cc(OC)c1OC` (some centres not stated), the TGI in the assay on SNB-78 CNS, in the assay with HOP-18 NSCLC and in the assay on KM20L2 colon was above 100 µM each time.
For `O=C1C[C@H]2CC3(CC[C@H]2CN1)OCCO3`, the TGI with SNB-78 CNS, in the assay on DLD-1 colon and in the assay on LXFL 529 NSCLC was above 100 µM each time.
For the molecule `Cc1cccc2c1C/C(=C1\CCc3c(C)cccc31)C2=O`, the TGI with DLD-1 colon, in the assay on HOP-18 NSCLC, with KM20L2 colon and in the assay with LXFL 529 NSCLC was above 100 µM in each case.
On to `C/C(=C\CC[C@]1(C)OC(C)(C)OC1CC/C(C)=C/CO[Si](c1ccccc1)(c1ccccc1)C(C)(C)C)CC/C=C/CO[Si](C)(C)C(C)(C)C` (some centres not stated), for which the TGI in the assay on SNB-78 CNS, in the assay with DLD-1 colon and in the assay on KM20L2 colon was above 100 µM in each case.
Regarding `O=C1/C(=C/c2ccc(Cl)cc2)COc2ccc(O)c(O)c21`, the GI50 was 0.702 µM in the assay with MDA-MB-435; 1.44 µM with DU-145 prostate; 0.501 µM in the assay with PC-3 prostate; 0.332 µM in the assay with MCF7 breast; 1.77 µM with BT-549 breast. Besides, the TGI in the assay with MDA-MB-435 was determined as 2.63 µM; with DU-145 prostate it was 3.13 µM; with PC-3 prostate it was 3.48 µM; in the assay on MCF7 breast it was 2.15 µM; with BT-549 breast, 4.04 µM.
